The nature of series [1]: Cell toxicity (CC50) in BK virus assay.
The next series deals with T1, PI4KIIIalpha (Homo sapiens, UniProt P42356).
T1 construct: made in house; host or cells: COS-7 cells, transient transfection, anti-HA immunoprecipitate on protein G Sepharose beads
Kind of series: PI-kinase assay, PI4KIIIalpha (Table 4). The class given is biochemical. As for the experimental part:
(§1) PI-kinase assay: Compounds are tested in C.1.1. PT kinase assays as described by Shokat et al., “A membrane capture assay for lipid kinase activity.” Nat. Protoc. 2007; 2(10):2459-66.
(§2) General methods of materials: In the assays described here, p110α-p85 complex and p110γ were acquired from Millipore. Assays were performed with La-phosphatidylinositol (Avanti) as described in Knight et al. Nat Protoc. 2007; 2 (10):2459-66. Inhibitor series were prepared 10% DMSO as 5× stocks for the assay. Assays of HsVps34 were performed as described in Knight et al, except that the final assay buffer composition used was changed to 20 mM HEPES 7.5, 100 mM NaCl, 3 mM MgCl, 1 mg/mL PI and 44 nM hvps34 was used in the assay. […] COS-7 cells were cultured in 10 cm dishes and transfected at 70% confluence with 10 μg of plasmid DNA (HA-tagged bovine PI4KIIIβ. HA-tagged human PI4KIIIα) using Lipofectamine 2000 and 5 ml Opti-MEM following the manufacturer's instructions. After 5 hours the transfection medium was replaced with 10 ml complete DMEM. 36 hrs post transfection, cells were washed once with 5 ml PBS (pH 7.4) and lysed in 1 ml of lysis buffer (1) on ice. Lysates were collected by scraping and after 15 min they were centrifuged at 13.000 rpm for 10 min. To the lysates was added 200 gi of protein G Sepharose 4 fast flow beads that were prewashed with PBS and lysis buffer and 2 sg of anti-HA antibody. The tubes were then incubated overnight at 4 degrees C. in a tube rotator. The Sepharose beads in the lysate were washed twice with 150 mM NaCl in RIPA buffer, twice with RIPA buffer and once with kinase buffer (50 mM Tris/HCl, pH 7.5, 20 mM MgCl2, 1 mM EFTA, 1 mM PtdIns, 0.4% Triton X-100, 0.5 mg/mL BSA) and finally the beads were resuspended in 200 μL kinase buffer. Kinase reactions were run in a mixture of 45 μL of PI buffer (1 mM P1 in kinase buffer), 10 μL of immunoprecipitated beads, 2 µL of inhibitors (dissolved and diluted in DMSO) or DMSO and 5 μL of [γ-^32P]-ATP (1 mM and 2 μCi/tube). The immunoprecipitates in PI buffer were pre-incubated with the drugs for 20 min prior the initiation of kinase reaction by adding ATP and the reactions were carried out for 30 min in 15 ml polyproplyene tubes. Reactions were terminated by addition of 3 ml of CHCl3:CH3OH:HCl (200:100:0.75) followed by 0.6 ml of 0.61N HCl to induce phase separation. The mixtures were vortexed, centrifuged at 2000 rpm for 2 min and the upper phase was discarded. To the lower phase was added 1.5 ml of CHCl3:CH3OH:0.6N HCl (3:48:47) and the mixture vortexed and centrifuged at 2000 rpm for 2 ruin. The lower phase was then transferred to counting vials and evaporated. Samples were counted in a scintillation beta counter after adding 5 ml of Instafluor (Perkin-Elmer).
(§3) Selected compounds of Tables 1-3 were prepared and tested for inhibition activity in a variety of kinase assays.

A further series deals with T2, PI4KIIIbeta (Bos taurus, UniProt O02810).
T2 construct: made in house; host or cells: COS-7 cells, transient transfection, anti-HA immunoprecipitate on protein G Sepharose beads
T2 sequence (O02810 whole entry): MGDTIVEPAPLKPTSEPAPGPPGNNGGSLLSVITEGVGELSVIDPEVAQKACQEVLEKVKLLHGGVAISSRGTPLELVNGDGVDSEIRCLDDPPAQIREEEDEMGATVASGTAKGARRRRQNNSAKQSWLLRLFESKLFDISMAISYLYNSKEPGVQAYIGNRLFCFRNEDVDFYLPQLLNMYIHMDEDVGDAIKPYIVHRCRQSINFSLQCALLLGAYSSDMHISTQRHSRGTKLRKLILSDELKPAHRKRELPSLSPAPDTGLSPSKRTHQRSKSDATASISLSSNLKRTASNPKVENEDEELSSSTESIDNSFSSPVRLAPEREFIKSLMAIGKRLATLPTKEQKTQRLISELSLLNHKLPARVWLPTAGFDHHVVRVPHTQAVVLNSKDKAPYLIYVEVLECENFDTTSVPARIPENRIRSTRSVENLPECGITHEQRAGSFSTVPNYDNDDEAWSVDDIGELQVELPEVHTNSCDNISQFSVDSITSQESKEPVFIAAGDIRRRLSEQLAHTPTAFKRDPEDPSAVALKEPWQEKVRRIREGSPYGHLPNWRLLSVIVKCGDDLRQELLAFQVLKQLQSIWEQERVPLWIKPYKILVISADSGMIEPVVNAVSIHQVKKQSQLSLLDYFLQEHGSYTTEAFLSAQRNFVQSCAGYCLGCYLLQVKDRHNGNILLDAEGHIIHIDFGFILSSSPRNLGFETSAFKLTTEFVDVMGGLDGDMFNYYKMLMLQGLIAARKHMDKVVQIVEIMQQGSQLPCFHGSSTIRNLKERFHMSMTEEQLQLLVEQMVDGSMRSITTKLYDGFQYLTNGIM
Kind of series: PI-kinase assay, PI4KIIIbeta (Table 4). The format is biochemical, bovine. Here is the method: as §1, §2, §3

In series [2] the test system is BK virus (Polyomaviridae). Nature of the series: BK virus antiviral assay (EC50). The class given is cell-based. The following applies: Betapolyomavirus hominis.
Series [3] can be described thus: Cell toxicity (CC50) in HRV assay. The settings on record: human, HRV CC50.
The test system of another series is HCV. Kind of series: Anti-HCV assay (EC50). The class given is cell-based. The following applies: Hepatitis C virus, read-out: HCV EC50. As for the experimental part:
Anti-HCV assay: Anti-HCV assays are performed as described by Cho et al. “Identification of a class of HCV inhibitors directed against the nonstructural protein NS4B.” Sci. Transl. Med. 2011; 2(15):15ra6.

The nature of series [4]: Cell toxicity (CC50) in EV68 assay. The settings on record: EV68 CC50.
Series [5] in a line: Microsomal stability, mouse liver microsomes. The class given is in vitro ADME. Background: Liver microsomes are a subcellular fraction often used to study metabolism.
Another series has as its system HRV. Nature of the series: Rhinovirus antiviral assay (EC50). The class given is cell-based. The following applies: Human rhinovirus sp.
Series [6] can be described thus: Microsomal stability, human liver microsomes. The format is in vitro ADME.
Series [7] is described as follows: Caco-2 permeability assay. The following applies: human, read-out: Caco2 Papp × 1e−6 cm/s. The format is in vitro ADME. As for the experimental part: Compounds of interest were tested in a variety of cell-based assays for antiviral activity.
The subject of the next series is EV71. Kind of series: EV71 antiviral assay (EC50). The class given is cell-based, Enterovirus 71.
The next series relates to EV68. Nature of the series: EV68 antiviral assay (EC50). The format is cell-based.
A short description of series [8]: Cell toxicity (CC50) in EV71 assay. The following applies: EV71 CC50.
Another series concerns HeLa S3 cells. Kind of series: Cell toxicity (CC50) in HRV assay. The following applies: human.
Another series deals with cells (EV68 assay). Kind of series: Cell toxicity (CC50) in EV68 assay.
A further series relates to cells (EV71 assay). Nature of the series: Cell toxicity (CC50) in EV71 assay.
Setting [9] is: read-out: HLM/MLM (t ½ min): MLM.
[10] abbreviates: with ritonavir (concentration not stated), + Ritonavir, read-out: HLM/MLM (t ½ min) + Ritonavir: MLM.
Where [11] appears, read: read-out: HLM/MLM (t ½ min): HLM.

The values below come from patent US20250326725A1, “PI4-Kinase Inhibitors and Methods of Using the Same” (The Board of Trustees of the Leland Stanford Junior …, priority 2019, published 2025).

Structures are written as SMILES. “And” between values parts separate entries of the source, which are not always exact repeats. Equal entries are not always repeated. Where two headings read alike, the source gives them in different places.

T1 sequence (P42356 whole entry): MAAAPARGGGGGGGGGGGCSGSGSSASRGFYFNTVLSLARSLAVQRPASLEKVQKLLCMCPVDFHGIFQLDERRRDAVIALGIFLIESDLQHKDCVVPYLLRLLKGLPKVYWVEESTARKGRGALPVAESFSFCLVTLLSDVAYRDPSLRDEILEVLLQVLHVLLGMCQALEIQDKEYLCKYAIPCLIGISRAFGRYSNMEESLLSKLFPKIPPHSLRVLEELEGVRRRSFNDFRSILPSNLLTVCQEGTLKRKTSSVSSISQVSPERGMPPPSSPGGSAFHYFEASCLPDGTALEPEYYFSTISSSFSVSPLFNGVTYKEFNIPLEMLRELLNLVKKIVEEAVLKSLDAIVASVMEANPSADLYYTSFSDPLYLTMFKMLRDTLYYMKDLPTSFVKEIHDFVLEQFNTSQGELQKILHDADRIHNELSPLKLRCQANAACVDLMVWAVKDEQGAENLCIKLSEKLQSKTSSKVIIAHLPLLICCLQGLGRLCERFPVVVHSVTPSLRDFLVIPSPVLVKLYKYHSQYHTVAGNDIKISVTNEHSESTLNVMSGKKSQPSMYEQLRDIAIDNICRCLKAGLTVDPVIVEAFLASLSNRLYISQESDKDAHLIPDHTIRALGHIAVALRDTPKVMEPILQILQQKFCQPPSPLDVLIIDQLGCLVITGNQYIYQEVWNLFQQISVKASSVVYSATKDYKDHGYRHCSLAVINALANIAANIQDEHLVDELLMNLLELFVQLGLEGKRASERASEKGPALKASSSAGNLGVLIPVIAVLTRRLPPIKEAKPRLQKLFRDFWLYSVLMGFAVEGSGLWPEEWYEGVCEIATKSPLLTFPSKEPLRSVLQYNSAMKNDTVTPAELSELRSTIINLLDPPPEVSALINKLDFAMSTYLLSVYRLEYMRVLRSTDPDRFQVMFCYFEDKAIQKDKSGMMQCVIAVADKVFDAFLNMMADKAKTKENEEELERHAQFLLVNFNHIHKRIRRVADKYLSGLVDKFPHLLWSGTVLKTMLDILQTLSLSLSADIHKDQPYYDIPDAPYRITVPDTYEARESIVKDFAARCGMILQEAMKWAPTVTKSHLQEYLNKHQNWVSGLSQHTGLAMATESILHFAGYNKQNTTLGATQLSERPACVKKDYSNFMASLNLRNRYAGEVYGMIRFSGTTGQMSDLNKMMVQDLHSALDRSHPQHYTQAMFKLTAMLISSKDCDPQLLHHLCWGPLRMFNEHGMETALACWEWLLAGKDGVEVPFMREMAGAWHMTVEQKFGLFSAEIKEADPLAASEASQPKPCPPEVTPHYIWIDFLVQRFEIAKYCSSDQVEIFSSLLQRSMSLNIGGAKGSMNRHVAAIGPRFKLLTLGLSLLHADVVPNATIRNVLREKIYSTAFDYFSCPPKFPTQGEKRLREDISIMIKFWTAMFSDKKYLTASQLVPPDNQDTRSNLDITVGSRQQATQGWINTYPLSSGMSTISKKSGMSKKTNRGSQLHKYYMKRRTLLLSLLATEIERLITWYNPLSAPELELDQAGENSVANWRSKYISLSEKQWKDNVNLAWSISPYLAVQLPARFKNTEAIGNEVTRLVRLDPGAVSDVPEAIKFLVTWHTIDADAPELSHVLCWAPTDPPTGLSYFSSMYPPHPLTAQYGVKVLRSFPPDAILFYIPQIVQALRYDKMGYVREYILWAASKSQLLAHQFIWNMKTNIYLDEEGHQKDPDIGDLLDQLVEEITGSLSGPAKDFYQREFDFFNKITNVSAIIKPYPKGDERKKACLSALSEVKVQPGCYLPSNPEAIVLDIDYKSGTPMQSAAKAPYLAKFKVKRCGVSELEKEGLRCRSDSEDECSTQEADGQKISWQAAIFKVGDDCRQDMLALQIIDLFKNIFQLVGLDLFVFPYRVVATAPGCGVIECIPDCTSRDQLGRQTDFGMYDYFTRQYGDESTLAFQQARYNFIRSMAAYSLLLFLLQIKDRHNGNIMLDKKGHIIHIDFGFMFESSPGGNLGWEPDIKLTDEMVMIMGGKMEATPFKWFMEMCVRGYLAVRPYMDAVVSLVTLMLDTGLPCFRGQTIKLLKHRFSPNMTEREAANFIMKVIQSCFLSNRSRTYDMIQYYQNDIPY

In series [1], `COc1ccc(-c2sc(NC(C)(C)C3CCOCC3)nc2C)cc1S(=O)(=O)Nc1c(C)cccc1F` [Compound C] gave a CC50 of over 100 µM. For the same compound, the IC50 against PI4KIIIalpha was over 10 µM; against PI4KIIIbeta, under 0.1 µM. Besides, in [2], the EC50 is 0.07 µM.
Turning to `COc1ccc(-c2sc(NC(C)(C)C3CCOCC3)nc2C)cc1S(=O)(=O)Nc1c(C)cccc1F` [Compound S-1], the CC50 in [3] came out at 15 µM; in [4], 18.2 µM; in [8], 100 µM. The EC50 in the series on HCV was 0.005 µM; in the series on HRV, 0.0005 µM; in the series with EV71 (Enterovirus A, EV71), 0.0002 µM; with EV68, 0.0024 µM and 0.002 µM. In addition, the half-life came out at 0.133 h in series [5] (setting [9]); 0.833 h in series [5] (setting [10]); 0.1 h in series [6] (setting [11]); 1.13 h in series [6] (with ritonavir (concentration not stated), + Ritonavir, read-out: HLM/MLM (t ½ min) + Ritonavir: HLM). Further, in series [7], the Papp came to 4 ×10⁻⁶ cm/s.
As for `COc1ccc(-c2sc(NC(C)(C)C3CCOCC3)nc2C)cc1S(=O)(=O)Nc1cccnc1C` [Compound S-3], the CC50 amounted to 70.5 µM in series [3]; 70 µM in the series on HeLa S3 cells; 47.5 µM in [4]; 47 µM in the series with cells (EV68 assay); 86 µM with cells (EV71 assay); 86.6 µM in series [8]. For the same compound, the EC50 in the series on HCV is 0.0005 µM; with HRV, 0.0005 µM; in the series on EV71 (Enterovirus A, EV71) it was 0.0005 µM; in the series with EV68 it was 0.0013 µM and 0.001 µM. In addition, the figures for the half-life in series [5] (setting [9]), in [5] (setting [10]) and in series [6] (setting [11]) were 0.967 h, 2.65 h and 0.967 h, respectively. The “HLM/MLM (t ½ min) + Ritonavir: HLM” value in [6] (+ Ritonavir) is on record as 159/159 min. Besides, the Papp in [7] was found to be 7.42 ×10⁻⁶ cm/s.
Take `COc1ccc(-c2sc(NC(C)(C)C3CCOCC3)nc2C)cc1S(=O)(=O)Nc1ccc(F)cc1Cl` [Compound S-4]: the CC50 in [3] is 17.3 µM; with HeLa S3 cells it was 17 µM; in the series with cells (EV71 assay) it was 36 µM; in [8] it was 36.5 µM. Besides, the EC50 in the series with HCV and in the series on HRV was 0.0013 µM each time.
In the case of `COc1ccc(-c2sc(NC3(C4CCOCC4)CC3)nc2C)cc1S(=O)(=O)Nc1ccc(Cl)cc1Cl` [Compound S-14], the CC50 in [3] came to 36.4 µM; with HeLa S3 cells, 36 µM; in [4], 39.4 µM; in the series on cells (EV68 assay) it was 39 µM; in the series on cells (EV71 assay), 37 µM; in series [8], 37.2 µM. The EC50 with HCV was 0.0144 µM; in the series on HRV, 0.014 µM; in the series with EV71, 0.01 µM; in the series with EV71 (Enterovirus A, EV71), 0.0104 µM; in the series with EV68, 33.3 µM and 33 µM.
`COc1ccc(-c2sc(NC(C)(C)c3ccccc3)nc2C)cc1S(=O)(=O)Nc1c(C)cccc1F` [Compound S-32]: the EC50 was 0.0002 µM in the series with HCV; 0.0006 µM and 0.0003 µM in the series with EV68. Half-maximal cytotoxicity in [4] (CC50) was put at 100 µM. In addition, the half-life in series [5] (setting [9]) turned out to be 0.367 h; in series [5] (setting [10]), 2.22 h; in [6] (setting [11]), 0.283 h. Besides, the “HLM/MLM (t ½ min) + Ritonavir: HLM” value in series [6] (+ Ritonavir) was 159 min. Further, the Papp in series [7] amounted to 0.04 ×10⁻⁶ cm/s. In addition, the IC50 against PI4KIIIalpha was over 10 µM; at PI4KIIIbeta it was under 0.1 µM.
As to `COc1ccc(-c2sc(NC(C)(C)c3cccnc3)nc2C)cc1S(=O)(=O)Nc1c(C)cccc1F` [Compound S-39], the CC50 in [3] is 47.7 µM; with HeLa S3 cells it was 47 µM; in series [4], 19.9 µM; with cells (EV68 assay), 19 µM; with cells (EV71 assay), 99 µM; in [8], 99 µM. The EC50 was determined as 0.0002 µM in the series with HCV; 0.0002 µM in the series on HRV; 0.0002 µM with EV71 (Enterovirus A, EV71); 0.0008 µM in the series with EV68. In addition, the half-life in series [5] (setting [9]) was 1.12 h; in series [5] (setting [10]), 1.38 h; in series [6] (setting [11]), 1.38 h. Moreover, the “HLM/MLM (t ½ min) + Ritonavir: HLM” value in series [6] (+ Ritonavir) turned out to be 159 min. Further, the Papp in series [7] was 7.6 ×10⁻⁶ cm/s.
As to `COc1ccc(-c2sc(NC(C)(C)c3ccccc3)nc2C)cc1S(=O)(=O)NC1CCN(S(C)(=O)=O)CC1` [Compound S-57], the CC50 in series [3] worked out at 95.2 µM; with HeLa S3 cells, 95 µM; in series [4], 100 µM; in series [8], 96.1 µM. The 50% effective concentration (EC50) with HCV was 0.0009 µM; with HRV, 0.0009 µM; with EV71 (Enterovirus A, EV71), 0.0009 µM; in the series with EV68, 0.001 µM.
Consider `COc1ccc(-c2sc(NC(C)C3CCOCC3)nc2C)cc1S(=O)(=O)Nc1c(C)cccc1F` (centres unmarked) [Compound S-76], for which the CC50 stood at 27 µM in series [1], 9.3 µM in [3], 9.4 µM in [4] and 36 µM in series [8]. Also, the EC50 is 0.0019 µM with HRV; 0.0018 µM with EV71 (Enterovirus A, EV71); 0.005 µM in the series on EV68; under 0.0006 µM in series [2].

The term CC50 denotes the concentration that lowers cell viability or growth by half. Higher therefore signals lower toxicity to the cells. The term IC50 denotes the midpoint of a concentration-inhibition curve. Low readings indicate higher potency, high ones lower potency. As usually defined, the EC50 is the midpoint of the concentration-response curve.
